This passage reports IC50 results from patent US8148391B2 (Cephalon, Inc., priority 2006, dated 2012).

The target of experiment [1] is T1, c-Met (cytoplasmic domain) (Homo sapiens, UniProt P08581).
T1 construct: 10 ng/mL c-Met (cytoplasmic domain, Invitrogen Corporation #PV3143); purchased Invitrogen Corporation PV3143
Nature of the experiment: c-Met Kinase Assay (same methods as for ALK, with modifications). It is filed as biochemical. The conditions noted are these: 1 μM ATP (Km level). On the procedure:
(§1) Briefly, each 96-well plate was coated with 100 μL/well of 10 μg/mL substrate (phospholipase C-γ) in Tris-buffered saline (TBS). […] The reaction was initiated by adding enzyme (30 ng/ml ALK) and was allowed to proceed at 37° C. for 15 minutes. Detection of the phosphorylated product was performed by adding 100 μl/well of Eu-N1 labeled PT66 antibody (Perkin Elmer # AD0041).
(§2) Data analysis was performed using ActivityBase (IDBS, Guilford, UK). IC50 values were calculated by plotting percent inhibition versus log10 of the concentration of compound and fitting to the nonlinear regression sigmoidal dose-response (variable slope) equation in XLFit (IDBS, Guilford, UK).
Reactions were initiated with 10 ng/mL c-Met (cytoplasmic domain, Invitrogen Corporation #PV3143).

Experiment [2] deals with T2, baculovirus-expressed ALK (Homo sapiens, UniProt Q9UM73).
T2 construct: host or cells: baculovirus expression system
Kind of experiment: ALK Kinase Assay (ELISA-type, time-resolved fluorescence). The experiment is classed as biochemical. On the procedure:
as §1, §2

Where [3] appears, read: 10 ng/mL c-Met, read-out: cMet Activity (c-Met kinase inhibition, IC50 class).
[4] abbreviates: c-Met kinase inhibition, read-out: cMet Activity.
The mark [5] stands for this setting: ALK kinase inhibition, 1 μM ATP (Km level), read-out: ALK Activity.
The mark [6] stands for this setting: 1 μM ATP (Km level), 30 ng/ml ALK, 37° C., 15 minutes, read-out: ALK Activity (ALK kinase inhibition, IC50 class).
Setting [7] is: ALK kinase inhibition, 1 μM ATP, read-out: ALK Activity.

Where two headings read alike, the source gives them in different places. Bounds are passed on as bounds.

T1 sequence (P08581 956-1390 limits assumed): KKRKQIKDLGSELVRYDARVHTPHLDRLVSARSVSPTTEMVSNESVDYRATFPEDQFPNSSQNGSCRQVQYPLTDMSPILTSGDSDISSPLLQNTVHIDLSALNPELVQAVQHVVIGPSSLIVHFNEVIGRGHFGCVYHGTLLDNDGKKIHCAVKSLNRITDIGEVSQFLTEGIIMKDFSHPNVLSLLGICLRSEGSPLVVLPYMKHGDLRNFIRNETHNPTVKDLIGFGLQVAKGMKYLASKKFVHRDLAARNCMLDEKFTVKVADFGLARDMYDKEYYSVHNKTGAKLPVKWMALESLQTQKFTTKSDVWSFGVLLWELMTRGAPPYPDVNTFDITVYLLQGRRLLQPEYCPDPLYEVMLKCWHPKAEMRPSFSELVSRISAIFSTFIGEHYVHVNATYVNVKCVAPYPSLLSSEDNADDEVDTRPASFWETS
T2 sequence (Q9UM73 19-1620): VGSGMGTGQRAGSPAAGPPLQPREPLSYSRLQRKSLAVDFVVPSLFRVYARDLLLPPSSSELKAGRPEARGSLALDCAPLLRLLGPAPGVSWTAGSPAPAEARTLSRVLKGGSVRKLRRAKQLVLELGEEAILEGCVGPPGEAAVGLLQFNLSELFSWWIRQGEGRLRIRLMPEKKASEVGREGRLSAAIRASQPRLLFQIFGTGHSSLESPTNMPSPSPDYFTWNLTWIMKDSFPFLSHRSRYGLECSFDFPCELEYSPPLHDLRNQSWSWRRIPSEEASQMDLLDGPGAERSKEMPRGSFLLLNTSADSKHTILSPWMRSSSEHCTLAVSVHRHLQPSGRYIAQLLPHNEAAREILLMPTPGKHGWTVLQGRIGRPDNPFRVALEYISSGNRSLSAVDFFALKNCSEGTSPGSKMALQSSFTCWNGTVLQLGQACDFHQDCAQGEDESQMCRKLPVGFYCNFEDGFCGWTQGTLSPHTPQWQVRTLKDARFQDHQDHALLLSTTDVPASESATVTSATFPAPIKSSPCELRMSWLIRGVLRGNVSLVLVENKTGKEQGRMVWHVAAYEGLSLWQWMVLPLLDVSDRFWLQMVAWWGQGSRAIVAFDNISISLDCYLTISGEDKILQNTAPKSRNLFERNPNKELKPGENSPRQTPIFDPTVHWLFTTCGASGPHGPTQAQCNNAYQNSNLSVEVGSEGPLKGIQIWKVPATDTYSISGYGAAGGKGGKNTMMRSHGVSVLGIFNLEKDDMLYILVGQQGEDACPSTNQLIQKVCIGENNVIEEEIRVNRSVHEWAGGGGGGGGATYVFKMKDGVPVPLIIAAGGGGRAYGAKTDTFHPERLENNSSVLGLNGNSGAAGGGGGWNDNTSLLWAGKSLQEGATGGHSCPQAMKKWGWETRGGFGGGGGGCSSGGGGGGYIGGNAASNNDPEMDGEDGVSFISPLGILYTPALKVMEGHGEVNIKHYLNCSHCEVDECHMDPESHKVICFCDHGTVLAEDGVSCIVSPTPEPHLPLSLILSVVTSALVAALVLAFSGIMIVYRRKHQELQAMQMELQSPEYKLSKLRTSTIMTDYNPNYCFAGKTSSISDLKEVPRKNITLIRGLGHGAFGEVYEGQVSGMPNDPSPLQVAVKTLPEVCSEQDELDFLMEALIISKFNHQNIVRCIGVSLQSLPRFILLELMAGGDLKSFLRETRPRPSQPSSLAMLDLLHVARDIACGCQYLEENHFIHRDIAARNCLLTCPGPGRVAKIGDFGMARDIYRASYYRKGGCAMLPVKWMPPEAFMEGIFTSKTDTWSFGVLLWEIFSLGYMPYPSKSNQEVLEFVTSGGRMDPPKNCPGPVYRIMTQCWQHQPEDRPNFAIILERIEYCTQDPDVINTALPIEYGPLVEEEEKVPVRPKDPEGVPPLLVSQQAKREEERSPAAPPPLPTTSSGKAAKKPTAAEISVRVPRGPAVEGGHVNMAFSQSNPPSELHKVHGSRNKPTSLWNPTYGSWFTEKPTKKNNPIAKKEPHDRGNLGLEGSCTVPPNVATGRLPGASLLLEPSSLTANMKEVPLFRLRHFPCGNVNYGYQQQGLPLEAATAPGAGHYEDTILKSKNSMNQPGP

Consider `COc1cc2c(cc1Nc1ncc(Cl)c(Nc3ccccc3OC)n1)CCN(CC(=O)N(C)C)CC2` [Example 1130, 2-{7-[5-Chloro-4-(2-methoxy-phenylamino)-pyrimidin-2-ylamino]-8-methoxy-1,2,4,5-tetrahydro-benzo[d]azepin-3-yl}-N,N-dimethyl-acetamide], for which the IC50 in experiment [1] (setting [3]) was more than 10000 nM. `COCCN1CCc2cc(Nc3ncc(Cl)c(Nc4ccc(N5CCOCC5)cc4OC)n3)c(OC)cc2CC1` [Example 113, 5-Chloro-N*2*-[8-methoxy-3-(2-methoxy-ethyl)-2,3,4,5-tetrahydro-1H-benzo[d]azepin-7-yl]-N*4*-(2-methoxy-4-morpholin-4-yl-phenyl)-pyrimidine-2,4-diamine]: in experiment [1] (setting [4]), the IC50 is more than 10000 nM.

As for `COc1cc2c(cc1Nc1ncc(Cl)c(Nc3ccc(N4CCOCC4)cc3OC)n1)CCN(CC(F)F)CC2` [Example 761, 5-Chloro-N*2*-[3-(2,2-difluoro-ethyl)-8-methoxy-2,3,4,5-tetrahydro-1H-benzo[d]azepin-7-yl]-N*4*-(2-methoxy-4-morpholin-4-yl-phenyl)-pyrimidine-2,4-diamine], the IC50 in experiment [1] (read-out: cMet Activity (c-Met Kinase Inhibition, IC50)) is more than 10000 nM.

Regarding `COc1cc2c(cc1Nc1ncc(Cl)c(Nc3ccc(C(N)=O)cc3OC)n1)CCN(CC(=O)N(C)C)CC2` [Example 1146, 4-[5-Chloro-2-(3-dimethylcarbamoylmethyl-8-methoxy-2,3,4,5-tetrahydro-1H-benzo[d]azepin-7-ylamino)-pyrimidin-4-ylamino]-3-methoxy-benzamide], the IC50 in experiment [1] (setting [3]) is more than 10000 nM.

As for `COc1cc2c(cc1Nc1ncc(Cl)c(Nc3ccc(N4CCOCC4)cc3OC)n1)CCN(CC(=O)N(C)C)CC2` [Example 261, 2-{7-[5-Chloro-4-(2-methoxy-4-morpholin-4-yl-phenylamino)-pyrimidin-2-ylamino]-8-methoxy-1,2,4,5-tetrahydro-benzo[d]azepin-3-yl}-N,N-dimethyl-acetamide], the IC50 in experiment [1] (cMet Activity, c-Met kinase inhibition) was more than 10000 nM. As for `COc1cc2c(cc1Nc1ncc(Cl)c(Nc3ccc(N4CCOCC4)cc3)n1)CCN(CC(=O)N(C)C)CC2` [Example 1150, 2-{7-[5-Chloro-4-(4-morpholin-4-yl-phenylamino)-pyrimidin-2-ylamino]-8-methoxy-1,2,4,5-tetrahydro-benzo[d]azepin-3-yl}-N,N-dimethyl-acetamide], in experiment [1] (setting [3]), the IC50 was more than 10000 nM.

With `CCN1C(=O)CCCc2c1ccc(Nc1ncc(Cl)c(Nc3ccc(N4CCOCC4)cc3OC)n1)c2OC` [Example 119, 7-[5-Chloro-4-(2-methoxy-4-morpholin-4-yl-phenylamino)-pyrimidin-2-ylamino]-1-ethyl-6-methoxy-1,3,4,5-tetrahydro-benzo[b]azepin-2-one], the IC50 in experiment [1] (setting [4]) is more than 10000 nM.

Consider `CNC(=O)c1cccc(C)c1Nc1nc(Nc2ccc3c(c2)CCN(CCOC)CC3)ncc1Cl` [Example 313, 2-{5-Chloro-2-[3-(2-methoxy-ethyl)-2,3,4,5-tetrahydro-1H-benzo[d]azepin-7-ylamino]-pyrimidin-4-ylamino}-3,N-dimethyl-benzamide], for which the IC50 in experiment [2] (setting [5]) was in the range of 100 to 1000 nM. For `CCOC(=O)N1CCCOc2cc(Nc3ncc(Cl)c(Nc4c(F)cccc4C(=O)NC)n3)ccc21` [Example 1417, 3-[5-Chloro-4-(2-fluoro-6-methylcarbamoyl-phenylamino)-pyrimidin-2-ylamino]-7,8-dihydro-6H-5-oxa-9-aza-benzocycloheptene-9-carboxylic acid ethyl ester], in experiment [2] (setting [6]), the IC50 was in the range of 100 to 1000 nM. Still for that read-out and setting: the value for `CNC(=O)c1cccc(F)c1Nc1nc(Nc2ccc3c(c2)NC(=O)C(NC(=O)N2CCCC2)CC3(C)C)ncc1Cl` (centres unmarked) [Example 1295, Pyrrolidine-1-carboxylic acid {8-[5-chloro-4-(2-fluoro-6-methylcarbamoyl-phenylamino)-pyrimidin-2-ylamino]-5,5-dimethyl-2-oxo-2,3,4,5-tetrahydro-1H-1-benzazepin-3-yl}-amide] was 100 to 1000 nM. Take `CNC(=O)c1cccc(F)c1Nc1nc(Nc2ccc3c(c2)N(CC(C)C)C(=O)CCC3(C)C)ncc1Cl` [Example 1592, 2-[5-Chloro-2-(1-isobutyl-5,5-dimethyl-2-oxo-2,3,4,5-tetrahydro-1H-benzo[b]azepin-8-ylamino)-pyrimidin-4-ylamino]-3-fluoro-N-methyl-benzamide]: in experiment [2] (setting [7]), the IC50 is less than 100 nM.

For the compound `CNC(=O)c1cccc(F)c1Nc1nc(Nc2ccc3c(c2)CCN(CCOC)CC3)ncc1Cl` [Example 311, 2-{5-Chloro-2-[3-(2-methoxy-ethyl)-2,3,4,5-tetrahydro-1H-benzo[d]azepin-7-ylamino]-pyrimidine-4-ylamino}-3-fluoro-N-methyl-benzamide], in experiment [2] (setting [5]), the IC50 was less than 100 nM. As for `CNC(=O)c1cccc(F)c1Nc1nc(Nc2ccc3c(c2)OCCCN3C(=O)CN2CCCC2)ncc1Cl` [Example 1714, 2-{5-Chloro-2-[9-(2-pyrrolidin-1-yl-acetyl)-6,7,8,9-tetrahydro-5-oxa-9-aza-benzocyclohepten-3-ylamino]-pyrimidin-4-ylamino}-3-fluoro-N-methyl-benzamide], in experiment [2] (setting [7]), the IC50 fell in the range of 100 to 1000 nM. Consider `CNC(=O)c1cccc(C)c1Nc1nc(Nc2ccc3c(c2)C(C)(C)CCC(=O)N3)ncc1Cl` [Example 399, 2-[5-Chloro-2-(5,5-dimethyl-2-oxo-2,3,4,5-tetrahydro-1H-benzo[b]azepin-7-ylamino)-pyrimidin-4-ylamino]-3,N-dimethyl-benzamide], for which the IC50 in experiment [2] (setting [5]) is 100 to 1000 nM. As to `CCN1CCCOc2cc(Nc3ncc(Cl)c(Nc4c(F)cccc4C(=O)NC)n3)ccc21` [Example 1692, 2-[5-Chloro-2-(9-ethyl-6,7,8,9-tetrahydro-5-oxa-9-aza-benzocyclohepten-3-ylamino)-pyrimidin-4-ylamino]-3-fluoro-N-methyl-benzamide], the IC50 in experiment [2] (setting [7]) was less than 100 nM. For `CNC(=O)c1cccc(F)c1Nc1nc(Nc2ccc3c(c2)C(C)(C)CCC(=O)N3)ncc1Cl` [Example 396, 2-[5-Chloro-2-(5,5-dimethyl-2-oxo-2,3,4,5-tetrahydro-1H-benzo[b]azepin-7-ylamino)-pyrimidin-4-ylamino]-3-fluoro-N-methyl-benzamide], the IC50 in experiment [2] (setting [5]) was less than 100 nM. For `C#CCN(C)C(=O)c1ccccc1Nc1nc(Nc2ccc3c(c2)CCCC(=O)N3C)ncc1Cl` [Example 1390, [5-Chloro-2-(1-methyl-2-oxo-2,3,4,5-tetrahydro-1H-benzo[b]azepin-7-ylamino)-pyrimidin-4-ylamino]-N-methyl-N-prop-2-ynyl-benzamide], in experiment [2] (setting [6]), the IC50 was less than 100 nM. Same read-out and setting: the value for `C#CCNC(=O)c1ccccc1Nc1nc(Nc2ccc3c(c2)CCCC(=O)N3C)ncc1Cl` [Example 1388, 2-[5-Chloro-2-(1-methyl-2-oxo-2,3,4,5-tetrahydro-1H-benzo[b]azepin-7-ylamino)-pyrimidin-4-ylamino]-N-prop-2-ynyl-benzamide] was less than 100 nM; that for `CNC(=O)c1cccc(F)c1Nc1nc(Nc2ccc3c(c2)NC(=O)CCC3)ncc1Cl` [Example 1375, 2-[5-Chloro-2-(2-oxo-2,3,4,5-tetrahydro-1H-benzo[b]azepin-8-ylamino)-pyrimidin-4-ylamino]-3-fluoro-N-methyl-benzamide] was 100 to 1000 nM.

Regarding `CNC(=O)c1cccc(F)c1Nc1nc(Nc2ccc3c(c2)NC(=O)C(N)CC3(C)C)ncc1Cl` (centres unmarked) [Example 1272, 2-[2-(3-Amino-5,5-dimethyl-2-oxo-2,3,4,5-tetrahydro-1H-1-benzazepin-8-ylamino)-5-chloro-pyrimidin-4-ylamino]-3-fluoro-N-methyl-benzamide], the IC50 in experiment [2] (setting [6]) was less than 100 nM.
